The record followed here is patent publication US11168153B2, “Cyclodextrin-based transporter of nucleoside triphosphate transporter across the cell membrane, its preparation and use” (USTAV ORGANICKE CHEMIE A BIOCHEMIE AV CR, V.V.I., priority 2016, dated 2021).

This test relates to HIV. The experiment in a line: Testing virostatic activity of adefovir diphosphate 8 in TZM-bl cell culture infected with HIV. It is filed as cell-based, Human immunodeficiency virus. The text has this:
The subject of testing was the compound of structure formula 8 (adefovir diphosphate) which is a known (Mulato & Cherrington, 1997) active metabolite—the reverse transcriptase inhibitor—in inhibiting the replication of viral DNA of HIV. In determining activity of […], compound 7 (tenofovir), which is a clinically approved drug used for the treatment of HIV, was used as a standard. […] Then the solution of the complex was removed and the infected cells were overlaid with medium with serum and incubated at 37° C. Parallel control experiments were performed (without infection; infection without active substance; 10 μmol·l^−1 tenofovir 7 throughout incubation; compound 8 without a carrier).

In the case of `Nc1ncnc2c1ncn2CCOCP(=O)(O)OP(=O)(O)OP(=O)(O)O` [Compound 8, adefovir diphosphate], for the setting “10 μmol·l−1 complex of compound 8 and transporter 6c in buffer A for 10 minutes, three days of incubation, standard 10 μmol·l−1 tenofovir 7 throughout incubation, FIG. 7”, the “Virostatic activity compared with tenofovir 7 standard” value is listed as “identical with the control experiments where a solution of compound 7 was present in the medium throughout the incubation”. In addition, the “Activity relative to drug 7, concluded from the shorter time of application” value (compound 8 applied using the 6c carrier for 10 min vs compound 7 present throughout incubation) is “more active than the clinically used drug 7”.
